Data: US20130252816A1, “HERBICIDAL COMPOSITION AND USE THEREOF” (Syngenta Crop Protection LLC, priority 2010, published 2013)

Key:
Test in all cases: Example 2: alcohol ethoxylate adjuvants without glyphosate, visual % damage, tracksprayer 300 l/ha
Format in all cases: in vivo
Veronica persica = tested on: Veronica persica
Source text: (§1) The effect of different types of alcohol ethoxylate (branched—Genapol X-series, and unbranched—Genapol O-series, differing degrees of ethoxylation, see Table 3 below for more details), on unwanted vegetation (broadleaf weed and grass species), in the absence of glyphosate, was investigated and compared to untreated (water only) control weeds.
(§2) Troughs (measuring 16 cm by 13 cm by 5 cm) were filled with local field soil. Seeds of Veronica persica, Stellaria media, Trifolium repens and Poa annua were sown 24 days before application of test samples. Plants were grown in the glasshouse at 18 to 20° C. and 60% relative humidity. Application of alcohol ethoxylate test samples was carried out using a tracksprayer, spraying at a rate of 300 l/ha. Plants were kept in glasshouse and visual assessment of the estimated percentage damage to the plant was carried out 1, 7, and 14 days from application.
(§3) Damage was assessed as wilting, desiccation or any other kind of visual injury in comparison to the untreated control (water only).

Poa annua = tested on: Poa annua
Source text: as §1, §2, §3

Trifolium repens = tested on: Trifolium repens
Source text: as §1, §2, §3

Stellaria media = tested on: Stellaria media
Source text: as §1, §2, §3

Which “mean % damage 1 daa Veronica persica” value (Veronica persica; adjuvant 1% w/v) does the source give for “Iso-tridecyl alcohol polyglycol ether with 2 moles of ethoxylation [GenapolX020]” here?
The value was 0%.

What about the “mean % damage 7 daa Veronica persica” value (Veronica persica; adjuvant 1% w/v) of the same substance?
The value was 0%.

What about the “mean % damage 14 daa Veronica persica” value (Veronica persica; adjuvant 1% w/v) of the same substance?
Its value is 0%.

What about the “mean % damage 1 daa Veronica persica” value (Veronica persica; adjuvant 1.5% w/v) of the same substance?
The value was 0%.

And the “mean % damage 7 daa Veronica persica” value (Veronica persica; adjuvant 1.5% w/v)?
The value was 0%.

And the “mean % damage 14 daa Veronica persica” value (Veronica persica; adjuvant 1.5% w/v)?
The value was 0%.

And the “mean % damage 1 daa Veronica persica” value (Veronica persica; adjuvant 2% w/v)?
The value was 5%.

And the “mean % damage 7 daa Veronica persica” value (Veronica persica; adjuvant 2% w/v)?
The value was 5%.

What about the “mean % damage 14 daa Veronica persica” value (Veronica persica; adjuvant 2% w/v) of the same substance?
The value was 5%.

And the “mean % damage 1 daa Veronica persica” value (Veronica persica; adjuvant 2.5% w/v)?
Its value is 5%.

What about the “mean % damage 7 daa Veronica persica” value (Veronica persica; adjuvant 2.5% w/v) of the same substance?
Its value is 5%.

And the “mean % damage 14 daa Veronica persica” value (Veronica persica; adjuvant 2.5% w/v)?
Its value is 5%.

And the “mean % damage 1 daa Poa annua” value (Poa annua; adjuvant 1% w/v)?
The value was 0%.

And the “mean % damage 7 daa Poa annua” value (Poa annua; adjuvant 1% w/v)?
Its value is 0%.

What about the “mean % damage 14 daa Poa annua” value (Poa annua; adjuvant 1% w/v) of the same substance?
The value was 0%.

And the “mean % damage 1 daa Poa annua” value (Poa annua; adjuvant 1.5% w/v)?
Its value is 0%.

And the “mean % damage 7 daa Poa annua” value (Poa annua; adjuvant 1.5% w/v)?
The value was 5%.

What about the “mean % damage 14 daa Poa annua” value (Poa annua; adjuvant 1.5% w/v) of the same substance?
Its value is 0%.

What about the “mean % damage 1 daa Poa annua” value (Poa annua; adjuvant 2% w/v) of the same substance?
The value was 0%.

And the “mean % damage 7 daa Poa annua” value (Poa annua; adjuvant 2% w/v)?
The value was 5%.

And the “mean % damage 14 daa Poa annua” value (Poa annua; adjuvant 2% w/v)?
Its value is 0%.

What about the “mean % damage 1 daa Poa annua” value (Poa annua; adjuvant 2.5% w/v) of the same substance?
The value was 0%.

What about the “mean % damage 7 daa Poa annua” value (Poa annua; adjuvant 2.5% w/v) of the same substance?
The value was 5%.

And the “mean % damage 14 daa Poa annua” value (Poa annua; adjuvant 2.5% w/v)?
Its value is 0%.

And the “mean % damage 1 daa Trifolium repens” value (Trifolium repens; adjuvant 1% w/v)?
Its value is 0%.

What about the “mean % damage 7 daa Trifolium repens” value (Trifolium repens; adjuvant 1% w/v) of the same substance?
The value was 0%.

And the “mean % damage 14 daa Trifolium repens” value (Trifolium repens; adjuvant 1% w/v)?
Its value is 0%.

What about the “mean % damage 1 daa Trifolium repens” value (Trifolium repens; adjuvant 1.5% w/v) of the same substance?
Its value is 5%.

And the “mean % damage 7 daa Trifolium repens” value (Trifolium repens; adjuvant 1.5% w/v)?
The value was 5%.

And the “mean % damage 14 daa Trifolium repens” value (Trifolium repens; adjuvant 1.5% w/v)?
Its value is 0%.

What about the “mean % damage 1 daa Trifolium repens” value (Trifolium repens; adjuvant 2% w/v) of the same substance?
The value was 10%.

What about the “mean % damage 7 daa Trifolium repens” value (Trifolium repens; adjuvant 2% w/v) of the same substance?
The value was 5%.

What about the “mean % damage 14 daa Trifolium repens” value (Trifolium repens; adjuvant 2% w/v) of the same substance?
Its value is 0%.

What about the “mean % damage 1 daa Trifolium repens” value (Trifolium repens; adjuvant 2.5% w/v) of the same substance?
The value was 10%.

And the “mean % damage 7 daa Trifolium repens” value (Trifolium repens; adjuvant 2.5% w/v)?
Its value is 5%.

What about the “mean % damage 14 daa Trifolium repens” value (Trifolium repens; adjuvant 2.5% w/v) of the same substance?
Its value is 10%.

And the “mean % damage 1 daa Stellaria media” value (Stellaria media; adjuvant 1% w/v)?
The value was 0%.

And the “mean % damage 7 daa Stellaria media” value (Stellaria media; adjuvant 1% w/v)?
Its value is 0%.

And the “mean % damage 14 daa Stellaria media” value (Stellaria media; adjuvant 1% w/v)?
Its value is 0%.

What about the “mean % damage 1 daa Stellaria media” value (Stellaria media; adjuvant 1.5% w/v) of the same substance?
Its value is 0%.

What about the “mean % damage 7 daa Stellaria media” value (Stellaria media; adjuvant 1.5% w/v) of the same substance?
Its value is 0%.

What about the “mean % damage 14 daa Stellaria media” value (Stellaria media; adjuvant 1.5% w/v) of the same substance?
Its value is 0%.

What about the “mean % damage 1 daa Stellaria media” value (Stellaria media; adjuvant 2% w/v) of the same substance?
The value was 0%.

What about the “mean % damage 7 daa Stellaria media” value (Stellaria media; adjuvant 2% w/v) of the same substance?
Its value is 5%.

And the “mean % damage 14 daa Stellaria media” value (Stellaria media; adjuvant 2% w/v)?
The value was 5%.

And the “mean % damage 1 daa Stellaria media” value (Stellaria media; adjuvant 2.5% w/v)?
The value was 0%.

And the “mean % damage 7 daa Stellaria media” value (Stellaria media; adjuvant 2.5% w/v)?
Its value is 5%.

And the “mean % damage 14 daa Stellaria media” value (Stellaria media; adjuvant 2.5% w/v)?
Its value is 0%.

Which results are given for “Oleyl alcohol polyglycol ether with 2 moles of ethoxylation [GenapolO020]”?
mean % damage 1 daa Veronica persica (Veronica persica; adjuvant 1% w/v): 0%; mean % damage 7 daa Veronica persica (Veronica persica; adjuvant 1% w/v): 0%; mean % damage 14 daa Veronica persica (Veronica persica; adjuvant 1% w/v): 0%; mean % damage 1 daa Veronica persica (Veronica persica; adjuvant 1.5% w/v): 0%; mean % damage 7 daa Veronica persica (Veronica persica; adjuvant 1.5% w/v): 0%; mean % damage 14 daa Veronica persica (Veronica persica; adjuvant 1.5% w/v): 0%; mean % damage 1 daa Veronica persica (Veronica persica; adjuvant 2% w/v): 0%; mean % damage 7 daa Veronica persica (Veronica persica; adjuvant 2% w/v): 0%; mean % damage 14 daa Veronica persica (Veronica persica; adjuvant 2% w/v): 0%; mean % damage 1 daa Veronica persica (Veronica persica; adjuvant 2.5% w/v): 0%; mean % damage 7 daa Veronica persica (Veronica persica; adjuvant 2.5% w/v): 0%; mean % damage 14 daa Veronica persica (Veronica persica; adjuvant 2.5% w/v): 0%; mean % damage 1 daa Poa annua (Poa annua; adjuvant 1% w/v): 0%; mean % damage 7 daa Poa annua (Poa annua; adjuvant 1% w/v): 0%; mean % damage 14 daa Poa annua (Poa annua; adjuvant 1% w/v): 0%; mean % damage 1 daa Poa annua (Poa annua; adjuvant 1.5% w/v): 0%; mean % damage 7 daa Poa annua (Poa annua; adjuvant 1.5% w/v): 0%; mean % damage 14 daa Poa annua (Poa annua; adjuvant 1.5% w/v): 0%; mean % damage 1 daa Poa annua (Poa annua; adjuvant 2% w/v): 0%; mean % damage 7 daa Poa annua (Poa annua; adjuvant 2% w/v): 0%; mean % damage 14 daa Poa annua (Poa annua; adjuvant 2% w/v): 0%; mean % damage 1 daa Poa annua (Poa annua; adjuvant 2.5% w/v): 0%; mean % damage 7 daa Poa annua (Poa annua; adjuvant 2.5% w/v): 0%; mean % damage 14 daa Poa annua (Poa annua; adjuvant 2.5% w/v): 0%; mean % damage 1 daa Trifolium repens (Trifolium repens; adjuvant 1% w/v): 0%; mean % damage 7 daa Trifolium repens (Trifolium repens; adjuvant 1% w/v): 0%; mean % damage 14 daa Trifolium repens (Trifolium repens; adjuvant 1% w/v): 0%; mean % damage 1 daa Trifolium repens (Trifolium repens; adjuvant 1.5% w/v): 0%; mean % damage 7 daa Trifolium repens (Trifolium repens; adjuvant 1.5% w/v): 0%; mean % damage 14 daa Trifolium repens (Trifolium repens; adjuvant 1.5% w/v): 0%; mean % damage 1 daa Trifolium repens (Trifolium repens; adjuvant 2% w/v): 0%; mean % damage 7 daa Trifolium repens (Trifolium repens; adjuvant 2% w/v): 0%; mean % damage 14 daa Trifolium repens (Trifolium repens; adjuvant 2% w/v): 0%; mean % damage 1 daa Trifolium repens (Trifolium repens; adjuvant 2.5% w/v): 0%; mean % damage 7 daa Trifolium repens (Trifolium repens; adjuvant 2.5% w/v): 10%; mean % damage 14 daa Trifolium repens (Trifolium repens; adjuvant 2.5% w/v): 0%; mean % damage 1 daa Stellaria media (Stellaria media; adjuvant 1% w/v): 0%; mean % damage 7 daa Stellaria media (Stellaria media; adjuvant 1% w/v): 0%; mean % damage 14 daa Stellaria media (Stellaria media; adjuvant 1% w/v): 0%; mean % damage 1 daa Stellaria media (Stellaria media; adjuvant 1.5% w/v): 0%; mean % damage 7 daa Stellaria media (Stellaria media; adjuvant 1.5% w/v): 0%; mean % damage 14 daa Stellaria media (Stellaria media; adjuvant 1.5% w/v): 0%; mean % damage 1 daa Stellaria media (Stellaria media; adjuvant 2% w/v): 0%; mean % damage 7 daa Stellaria media (Stellaria media; adjuvant 2% w/v): 0%; mean % damage 14 daa Stellaria media (Stellaria media; adjuvant 2% w/v): 0%; mean % damage 1 daa Stellaria media (Stellaria media; adjuvant 2.5% w/v): 0%; mean % damage 7 daa Stellaria media (Stellaria media; adjuvant 2.5% w/v): 5%; mean % damage 14 daa Stellaria media (Stellaria media; adjuvant 2.5% w/v): 0%
